≈ marks a conversion by molar mass, not a printed value. Numbered stars: 1 amine (or outer) side, 2 acyl side, 3 side chain; on linkers, the order of the positions; unused ones are H or OH. Square brackets hold non-standard residues; d marks the D form. Peptide text beside a SMILES is read from it. X2 = COc1cccc2[nH]c(C)c(C[C@H](N[*:1])C(=O)[*:2])c12; dAla(ψthiazole) = C[C@@H](N[*:1])c1nc(C(=O)[*:2])cs1; Trp(4-OMe) = COc1cccc2[nH]cc(C[C@H](N)C(=O)O)c12; GlyΨ(Thz) = O=C(c1csc(CN[*:1])n1)[*:2]; dDab = NCC[C@@H](N)C(=O)O; Orn = NCCC[C@H](N)C(=O)O; dAbu = CC[C@@H](N)C(=O)O; Dab = NCC[C@H](N)C(=O)O; Dha = C=C(N)C(=O)O; Sar = CNCC(=O)O
Biological target: T1, PA-I galactophilic lectin (Pseudomonas aeruginosa (strain ATCC 15692 / PAO1 / 1C / PRS 101 / LMG12228), UniProt Q05097)
T1 sequence (Q05097 whole entry): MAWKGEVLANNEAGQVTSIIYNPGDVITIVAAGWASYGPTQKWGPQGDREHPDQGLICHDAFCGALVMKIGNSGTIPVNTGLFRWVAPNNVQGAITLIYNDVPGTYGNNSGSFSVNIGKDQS
Assay: Binding affinity to Pseudomonas aeruginosa PAO1 LecA assessed as dissociation constant
Conditions: not given
For `CC(=O)N[C@H]1C(O)O[C@H](CO)[C@@H](O[C@@H]2O[C@@H](C)[C@@H](O)[C@@H](O)[C@@H]2O)[C@@H]1O[C@@H]1O[C@H](CO)[C@H](O)[C@H](O)[C@H]1O` (some centres not stated), the Kd was 212 nM.
`OC[C@H]1O[C@@H](Sc2ccc3ccccc3c2)[C@H](O)[C@@H](O)[C@H]1O` gave a Kd of 6300 nM.
With `CC[C@H](C)[C@H](NC(=O)[C@H](Cc1cnc[nH]1)NCCCC[C@H](NC(=O)[C@@H](NC(=O)[C@H](CCCCN)NC(=O)[C@H](Cc1ccccc1)NC(=O)[C@H](CCCCNC(=O)[C@H](CC(C)C)NC(=O)[C@@H]1CCCN1C(=O)[C@@H](N)CCCCNC(=O)C[C@@H]1O[C@@H](C)[C@@H](O)[C@@H](O)[C@@H]1O)NC(=O)[C@H](CC(C)C)NC(=O)[C@@H]1CCCN1C(=O)[C@@H](N)CCCCNC(=O)C[C@@H]1O[C@@H](C)[C@@H](O)[C@@H](O)[C@@H]1O)[C@@H](C)CC)C(=O)N[C@H](C(=O)N[C@@H](CCCCN)C(=O)N[C@@H](Cc1ccccc1)C(=O)N[C@@H](CCCCN[C@@H](CC(C)C)C(=O)N1CCC[C@H]1C(=O)N[C@@H](CCCCNC(=O)C[C@@H]1O[C@@H](C)[C@@H](C)[C@@H](C)[C@@H]1O)C(=O)O)C(=O)N[C@@H](CC(C)C)C(=O)N1CCC[C@H]1C(=O)N[C@@H](CCCCNC(=O)C[C@@H]1O[C@@H](C)[C@@H](O)[C@@H](O)[C@@H]1O)C(=O)O)[C@@H](C)CC)C(N)=O` the Kd was 140 nM.
`N=C(N)NCCC[C@H](NC(=O)COCCOCCNC(=O)[C@H](CCCCNC(=O)[C@@H]1C[C@H](NC(=O)[C@H](Cc2cn(CCNC(=O)c3ccc(S[C@@H]4O[C@H](CO)[C@H](O)[C@H](O)[C@H]4O)cc3)nn2)NC(=O)COc2ccccc2)CN1)NC(=O)[C@@H]1C[C@H](NC(=O)[C@H](Cc2cn(CCNC(=O)c3ccc(S[C@@H]4O[C@H](CO)[C@H](O)[C@H](O)[C@H]4O)cc3)nn2)NC(=O)COc2ccccc2)CN1)C(N)=O` showed a Kd of 82 nM.
Compound `CO[C@H]1O[C@H]([C@@H](O)CNS(=O)(=O)c2c(C)cc(C)cc2C)[C@@H](O)[C@H](O)[C@@H]1O` has a Kd of 100 nM.
With `COC(=O)c1cn([C@@H]2O[C@H](CO)[C@@H](O[C@@H]3O[C@@H](C)[C@@H](O)[C@@H](O)[C@@H]3O)[C@H](O)[C@H]2NC(C)=O)nn1` the Kd was 290 nM.
Compound `C[C@@H]1O[C@H](C)[C@@H](O)[C@H](O)[C@@H]1O` has a Kd of 17000 nM.
Work on `C[C@@H]1O[C@H](CO)[C@@H](O)[C@H](O)[C@@H]1O` yielded a Kd of 16000 nM.

System: not listed separately
Assay: Half life in mouse
Format: ADME, organism-based
Conditions: in vivo
With `CO[C@H]1O[C@H](CNC(=O)/C=C/c2ccccc2)[C@@H](O)[C@H](O)[C@@H]1O` the half-life was 5 min.
Compound `CO[C@H]1O[C@H](CO)[C@@H](O)[C@H](O)[C@@H]1O` has a half-life of 0.75 min.

System: Pseudomonas aeruginosa
Assay: Antimicrobial activity against Pseudomonas aeruginosa assessed as reduction in bacterial growth
Format: functional, organism-based
Conditions: not given
Compound `C=C1NC(=O)[C@@H](C)NC(=O)CNC(=O)[C@H](Cc2c[nH]c3ccccc23)NC(=O)[C@H](Cc2c[nH]c3ccccc23)NC(=O)c2csc(n2)[C@@H](C)NC(=O)CN(C)C1=O` has an IC50 of 1.4 µg/mL (≈ 1.76 µM).
`C=C1NC(=O)[C@@H](C)NC(=O)CNC(=O)[C@H](Cc2c[nH]c3cccc(OC)c23)NC(=O)[C@H](Cc2c[nH]c3ccccc23)NC(=O)c2csc(n2)CNC(=O)CN(C)C1=O` (cyclo([Dha][Sar][GlyΨ(Thz)]W[Trp(4-OMe)]G[dA])) showed an IC50 of 0.8 µg/mL (≈ 0.987 µM).
With `C[C@@H](N)C(=O)N[C@H](CCCCN)C(=O)N[C@H](CCCNC(=N)N)C(=O)N[C@H](Cc1c[nH]cn1)C(=O)N[C@H](Cc1c[nH]cn1)C(=O)NCC(=O)N[C@H](Cc1ccc(O)cc1)C(=O)N[C@H](CCCCN)C(=O)N[C@H](CCCNC(=N)N)C(=O)N[C@H](CCCCN)C(=O)N[C@H](Cc1ccccc1)C(=O)N[C@H](Cc1c[nH]cn1)C(N)=O` (H-[dA][dK][dR][dH][dH]G[dY][dK][dR][dK][dF][dH]-NH2) the MIC was 2 µM (≈ 3.13 µg/mL).
With `C=C1NC(=O)[C@@H](C)NC(=O)CNC(=O)[C@H](Cc2c[nH]c3cccc(OC)c23)NC(=O)[C@H](Cc2c[nH]c3ccccc23)NC(=O)c2csc(n2)[C@@H](C)NC(=O)CN(C)C1=O` (cyclo(W[Trp(4-OMe)]G[dA][Dha][Sar][dAla(ψthiazole)])) the IC50 was 0.12 µg/mL (≈ 0.145 µM).
In the case of `C=C1NC(=O)[C@@H](C)NC(=O)CNC(=O)[C@H](Cc2c(C)[nH]c3cccc(OC)c23)NC(=O)[C@H](Cc2c[nH]c3ccccc23)NC(=O)c2csc(n2)[C@@H](C)NC(=O)CN(C)C1=O` (cyclo(W[X2]G[dA][Dha][Sar][dAla(ψthiazole)])), the IC50 is reported as 0.1 µg/mL (≈ 0.119 µM).
Compound `C=C1NC(=O)[C@@H](CC)NC(=O)CNC(=O)[C@H](Cc2c(C)[nH]c3cccc(OC)c23)NC(=O)[C@H](Cc2c[nH]c3ccccc23)NC(=O)c2csc(n2)[C@@H](C)NC(=O)CN(C)C1=O` (cyclo(W[X2]G[dAbu][Dha][Sar][dAla(ψthiazole)])) has an IC50 of 0.14 µg/mL (≈ 0.164 µM).
Compound `CC[C@H](C)[C@@H]1NC(=O)[C@H](Cc2c[nH]c3ccccc23)NC(=O)[C@H]([C@@H](C)O)NC(=O)[C@@H]2CCCN2C(=O)[C@H]2CCCN2C(=O)[C@H](CO)NC(=O)[C@H](C)NC(=O)[C@H](CCN)NC(=O)[C@H](CCN)NC(=O)[C@H](Cc2c[nH]c3ccccc23)NC(=O)[C@H](CCN)NC(=O)[C@@H](CCN)NC(=O)[C@H](CCCN)NC(=O)[C@H](CCN)NC1=O` [MUREPAVADIN] (cyclo(TWI[Dab][Orn][dDab][Dab]W[Dab][Dab]AS[dP]P)) has an MIC50 of 10 µg/mL (≈ 6.44 µM).

Source: ChEMBL document CHEMBL5257018, “Novel Strategies for the Treatment of Pseudomonas aeruginosa Infections” (J Med Chem, 2016)
